Literature values, collected in publication PMC10817174, “Integrated drug response prediction models pinpoint repurposed drugs with effectiveness against rhabdomyosarcoma” (PLOS ONE, 2024).

Tests used:
[1] = system: GDSC-RD cell line; details: Table S2, published drug response ref Iorio et al. (2016); cited from earlier work
[2] = system: GDSC-SJCRH30 cell line; details: Table S2, published drug response ref Iorio et al. (2016); cited from earlier work

| SMILES | Iorio_RD [1] | Iorio_SJCRH30 [2] |
| --- | --- | --- |
| COc1cc(O)c2c(c1)/C=C/C[C@H](O)[C@H](O)C(=O)/C=C\C[C@H](C)OC2=O [Oxozeaenol] | S | R |
| C=CCc1cccc(/C=N/NC(=O)CN2CCN(Cc3ccccc3)CC2)c1O [PAC-1] | R | R |
| CN(c1ncccc1CNc1nc(Nc2ccc3c(c2)CC(=O)N3)ncc1C(F)(F)F)S(C)(=O)=O [PF-562271] | R | R |
| CCc1cncnc1N1CCN(Cc2nc3ccc(C(F)(F)F)cc3[nH]2)CC1 [PF-4708671] | R | R |
| COc1ccccc1S(=O)(=O)Nc1ccc2c(c1)CN(C)C(=O)N2 [PFI-1] | R | R |
| CC(C)CC(=O)Nc1[nH]nc2c1CN(C(=O)C1CCN(C)CC1)C2(C)C [PHA-793887] | R | R |
| Oc1cccc(-c2nc(N3CCOCC3)c3oc4ncccc4c3n2)c1 [PI-103] | R | R |
| CC(=O)Nc1nc(C)c(-c2ccc(Cl)c(S(=O)(=O)NCCO)c2)s1 [PIK-93] | R | R |
| Cc1ccc(Nc2nccc(N(C)c3ccc4c(C)n(C)nc4c3)n2)cc1S(N)(=O)=O [Pazopanib] | R | R |
| [H]/N=C(/N)N/C(=N/[H])NCCc1ccccc1 [Phenformin] | R | R |
| C=CC(=O)Nc1cc(-n2c(=O)ccc3cnc4ccc(-c5cn[nH]c5)cc4c32)ccc1C [QL-X-138] | R | R |
| C=CC(=O)Nc1cc(NC(=O)c2ccc(C)c(NC(=O)c3ccno3)c2)cc(C(F)(F)F)c1 [QL-XI-92] | S | S |
| OC[C@H](Cc1ccccc1)Nc1nc(Oc2ccc3c(c2)CCC3)nc2c1ncn2Cc1ccc(-c2ccccc2)cc1 [QS11] | R | R |
| N#CC[C@H](C1CCCC1)n1cc(-c2ncnc3[nH]ccc23)cn1 [Ruxolitinib] | R | R |
| Cc1cccc(-c2[nH]c(C(C)(C)C)nc2-c2ccc3nccnc3c2)n1 [SB52334] | R | R |
| Cc1cccc(-c2[nH]c(C(C)(C)C)nc2-c2ccc3c(c2)OCO3)n1 [SB-505124] | R | R |
| Cc1ccc(C(=O)N(CCCN)[C@@H](c2nc3cc(Cl)ccc3c(=O)n2Cc2ccccc2)C(C)C)cc1 [SB-715992] | R | R |
| CC(C)N(CCCNC(=O)Nc1ccc(C(C)(C)C)cc1)C[C@H]1O[C@@H](n2cc(Br)c3c(N)ncnc32)[C@H](O)[C@@H]1O [SGC0946] | R | R |
| CCc1c2c(nc3ccc(O)cc13)-c1cc3c(c(=O)n1C2)COC(=O)[C@]3(O)CC [SN-38] | R | R |
| CC1(C)CC(=O)c2c(C(F)(F)F)nn(-c3ccc(C(N)=O)c(N[C@H]4CC[C@H](O)CC4)c3)c2C1 [SNX-2112] | R | R |
| Cc1cccc(Nc2nc(-c3ccncc3)cs2)c1 [STF-62247] | R | R |
| CC(C)=CC[C@@H](O)C1=CC(=O)c2c(O)ccc(O)c2C1=O [Shikonin] | R | R |
| O=S(=O)(c1ccccc1)N(CC(F)(F)F)c1ccc(C(O)(C(F)(F)F)C(F)(F)F)cc1 [T0901317] | R | R |

| SMILES | Iorio_RD [1] | Iorio_SJCRH30 [2] |
| --- | --- | --- |
| CCc1nc(-c2cccc(C)c2)c(-c2ccnc(NC(=O)c3ccccc3)c2)s1 [TAK-715] | R | R |
| CN(C)C/C=C/C(=O)Nc1ccc(C(=O)Nc2cccc(Nc3ncc(Cl)c(-c4c[nH]c5ccccc45)n3)c2)cc1 [THZ-2-102-1] | R | R |
| NC(=O)Nc1sc(-c2ccc(F)cc2)cc1C(N)=O [TPCA-1] | R | R |
| CC(C)c1ccccc1Cc1cc(C(=O)Nc2ccc(S(=O)(=O)c3ccccc3C(C)(C)C)cc2)c(O)c(O)c1O [TW-37] | R | R |
| CC/C(=C(\c1ccccc1)c1ccc(OCCN(C)C)cc1)c1ccccc1 [Tamoxifen] | R | R |
| Cn1nnc2c(C(N)=O)ncn2c1=O [Temozolomide] | R | R |
| C/C=C(/C)C(=O)O[C@H]1C(C)=C2[C@H]([C@@H]1OC(=O)CCCCCCC)[C@@](C)(OC(C)=O)C[C@H](OC(=O)CCC)[C@@]1(O)[C@H]2OC(=O)[C@@]1(C)O [Thapsigargin] | R | R |
| Cn1cncc1[C@@](N)(c1ccc(Cl)cc1)c1ccc2c(c1)c(-c1cccc(Cl)c1)cc(=O)n2C [Tipifarnib] | R | R |
| CC(=O)Nc1cccc(-n2c(=O)n(C3CC3)c(=O)c3c(Nc4ccc(I)cc4F)n(C)c(=O)c(C)c32)c1 [Trametinib] | S | R |
| CN1CCc2c(c3ccccc3n2Cc2ccc(C(=O)NO)cc2)C1 [Tubastatin-A] | S | R |
| O=C(c1ccc(C(=O)N2CCC(N3CCCC3)CC2)c(Nc2ccccc2)c1)N1CCC(N2CCCC2)CC1 [UNC1215] | R | S |
| CCCC(=O)OCc1ccc(OC(=O)/C=C(C)/C=C/C=C(C)/C=C/C2=C(C)CCCC2(C)C)cc1 [VNLG-124] | R | R |
| CCC1=C[C@@H]2CN(C1)Cc1c([nH]c3ccccc13)[C@@](C(=O)OC)(c1cc3c(cc1OC)N(C)[C@H]1[C@@](O)(C(=O)OC)[C@H](OC(C)=O)[C@]4(CC)C=CCN5CC[C@]31[C@@H]54)C2 [Vinorelbine] | R | R |
| Oc1nc(-c2ccc(C(F)(F)F)cc2)nc2c1CSCC2 [XAV-939] | R | R |
| COc1cc2nccc(Oc3ccc(NC(=O)C4(C(=O)Nc5ccc(F)cc5)CC4)cc3)c2cc1OC [XL-184] | R | R |
| COc1cc2c(Oc3ccc(NC(=O)C4(C(=O)Nc5ccc(F)cc5)CC4)cc3F)ccnc2cc1OCCCN1CCOCC1 [XL-880] | R | R |
| COc1cc(N2CCN(C)CC2)ccc1Nc1nc(N)c(C(=O)c2c(Cl)cccc2Cl)s1 [XMD14-99] | R | R |
| C[C@@H](N)c1ccc(C(=O)Nc2ccnc3[nH]ccc23)cc1 [Y-39983] | R | R |
| COc1ccc(C(=O)CC2(O)C(=O)Nc3c(Cl)ccc(Cl)c32)cc1 (centres unmarked) [YK-4-279] | R | R |
| COCCn1c2c([n+](Cc3cnccn3)c1C)C(=O)c1ccccc1C2=O [YM155] | R | R |
| Nc1ccc(C(=O)Nc2cccc(-c3nc(N4CCOCC4)c4oc5ncccc5c4n3)c2)cn1 [YM201636] | R | R |
| FC(F)c1nc2ccccc2n1-c1nc(N2CCOCC2)nc(N2CCOCC2)n1 [ZSTK474] | R | R |
| COc1nc(C)cnc1NS(=O)(=O)c1cccnc1-c1ccc(-c2nnco2)cc1 [Zibotentan] | R | R |
